Experimental data taken from US6391907B1, “Indoline derivatives” (American Home Products Corporation, priority 1999, dated 2002).
Where “and” joins values, the source holds several entries; their conditions need not be identical. Identical values can stand only once.

Legend:
[1] = system: rat uterine decidualization; assay: Rat decidualization assay; assay type: in vivo; settings: for EC50: s.c., half-maximal increase in decidual response (uterine wet weight), ovariectomized rats, individual studies
Protocol: 1. Rat Decidualization Assay
The animals are treated once daily for seven days.
Uteri are removed and trimmed of fat.
Decidual response: [(D-C)/C]×100%

[2] = @ 3 mg/kg, rat decidualization, antiprogestational mode, read-out: Decid. IC50 mg/kg

Structure (SMILES) | melting point | further results
N#Cc1cc(-c2ccc3c(c2)C2(CCCC2)C(=O)N3)ccc1F | 264 to 266 °C | 
C#C[C@]1(O)CC[C@H]2[C@@H]3CCC4=CC(=O)CC[C@@H]4[C@H]3C(=C)C[C@@]21CC [3-Ketodesogestrel] |  | EC50 [1]: 0.10 mg/kg and 0.06 mg/kg and 0.11 mg/kg
O=C1Cc2cc(-c3cccc([N+](=O)[O-])c3)ccc2N1 [Example 1, 5-(3-Nitro-phenyl)-1,3-dihydro-indol-2-one] | 269 °C | 
CCC1C(=O)Nc2ccc(-c3cccc(Cl)c3)cc21 (stereo not drawn) [Example 6, 5-(3-Chloro-phenyl)-3-ethyl-1,3dihydro-indol-2-one] | 118 to 120 °C | 
CCC1(CC)C(=O)Nc2ccc(-c3cccc(Cl)c3)cc21 [Example 7, 5-(3-Chloro-phenyl)-3,3-diethyl-1,3-dihydro-indol-2-one] | 195 to 197 °C | 
O=C1Nc2ccc(-c3cccc(Cl)c3)cc2C12OCCO2 [Example 11, 5′-(3-Chlorophenyl)spiro[1,3-dioxolane-2,3′-[3H]indol]-2′(1′H)-one] | 159 to 161 °C | 
O=C1Nc2ccc(-c3cc(F)cc(Cl)c3)cc2C12CCCCC2 [Example 27, 5′-(3-Chloro-5-fluorophenyl)spiro[cyclohexane-1,3′-[3H]indol]-2′(1′H)-one] | 178 to 180 °C | 
O=C1Nc2ccc(-c3cccc([N+](=O)[O-])c3)cc2C12CCCCC2 [Example 30, 5′-(3-Nitrophenyl)spiro[cyclohexane-1,3′-[3H]indol]-2′(1′H)-one] | 196 to 198 °C | 
N#Cc1csc(-c2ccc3c(c2)C2(CCCCC2)C(=O)N3)c1 [Example 38, 5-(1′,2′-Dihydro-2′-oxospiro[cyclohexane-1,3′-[3H]indol]-5′-yl)-thiophene-3-carbonitrile] | 188 to 190 °C | 
N#Cc1coc(-c2ccc3c(c2)C2(CCCCC2)C(=O)N3)c1 [Example 40, 5-(1′,2′-Dihydro-2′-oxospiro[cyclohexane-1,3′-[3H]indol]-5′-yl)-3-furancarbonitrile] | 243 to 245 °C | 
Cn1c(-c2ccc3c(c2)C2(CCCCC2)C(=O)N3)ccc1[N+](=O)[O-] [Example 45, 5′-(5-Nitro-1-methyl-pyrrol-2-yl)spiro[cyclohexane-1,3′-[3H]indol]-2′(1′H)-one] | 210 °C | 
O=C1Nc2ccc(-c3cccc4[nH]ccc34)cc2C12CCCCC2 [Example 46, 5′-(1H-Indol-4-yl)spiro[cyclohexane-1,3′-[3H]indol]-2′(1′H)-one] | 211 to 213 °C | 
N#Cc1cc(F)cc(-c2cc(Br)c3c(c2)C2(CCCCC2)C(=O)N3)c1 [Example 51, 3-(7′-Bromo-1′,2′-dihydro-2′-oxospiro[cyclohexane-1,3′-[3H]indol]-5′-yl)-5-fluoro-benzonitrile] | 217 °C | 
N#Cc1cc(F)cc(-c2cc([N+](=O)[O-])c3c(c2)C2(CCCCC2)C(=O)N3)c1 [Example 52, 3-(7′-Nitro-1′,2′-dihydro-2′-oxospiro[cyclohexane-1,3′-[3H]indol]-5′-yl)-5-fluoro-benzonitrile] | 196 °C | 
N#Cc1cc(F)cc(-c2cc(N)c3c(c2)C2(CCCCC2)C(=O)N3)c1 [Example 53, 3-(7′-Amino-1′,2′-dihydro-2′-oxospiro[cyclohexane-1,3′-[3H]indol]-5′-yl)-5-fluoro-benzonitrile] | 241 to 243 °C | 
Cc1c(-c2ccc3c(c2)C2(CCCCC2)C(=O)N3)sc2ccc(Cl)cc12 [Example 58, 5′-(5-Chloro-3-methylbenzo[b]thien-2-yl)spiro[cyclo-hexane-1,3′-[3H]indol]-2′(1′H)-one] | 256 to 258 °C | 
CC1(C)C(=O)Nc2ccc(-c3ccc(F)c(Cl)c3)cc21 [Example 66, 5-(3-Chloro-4-fluoro-phenyl)-3,3-dimethyl1,3-dihydro-indol-2-one] | 206.5 to 207.8 °C | 
CC1(C)C(=O)Nc2ccc(-c3cccc(C#N)c3)cc21 [Example 67, 3-(3,3-Dimethyl-2-oxo-2,3-dihydro-1H-indol-5-yl)-benzonitrile] | 200.2 to 202 °C | 
Cc1cc(C#N)sc1-c1ccc2c(c1)C1(CCCC1)C(=O)N2 [Example 73] |  | Decid. IC50 mg/kg ([1]; @ 3 mg/kg, rat decidualization, antiprogestational mode): 50% @ 3
O=C1Nc2ccc(-c3ccc(F)c(Cl)c3)cc2C12CCCC2 [Example 76, 5′-(3-Chloro-4fluorophenyl)-spiro[cyclopentane-1,3′-[3H]indol]-2′(1′H)-one] | 202 to 204 °C | 
N#Cc1cc(F)cc(-c2ccc3c(c2)C2(CCCC2)C(=O)N3)c1 [Example 80, 5′-(3-Cyano-5-fluorophenyl)-spiro[cyclopentane-1,3′-[3H]indol]-2′(1′H)-one] |  | inhibition in vivo at 3 mg/kg [1, 2]: 70%
CC1(C)C(=O)Nc2ccc(-c3ccc([N+](=O)[O-])s3)cc21 [Example 83, 3,3-Dimethyl-5-(5-nitro-thiophene-2-yl)-1,3-dihydro-indol-2-one] | 223 to 225 °C | 
CC(C)(C)OC(=O)n1cccc1-c1ccc2c(c1)C(C)(C)C(=O)N2 [Example 84, 2-(3,3-Dimethyl-2-oxo-2,3-dihydro-1H-indol-5yl)-pyrrole-1-carboxylic acid tert-butyl ester] | 168.4 to 170.2 °C | 
CC1(C)C(=O)Nc2ccc(C3([N+](=O)[O-])C=CC=N3)cc21 (stereo not drawn) [Example 85, 2-(3,3-Dimethyl-2-oxo-2,3-dihydro-1H-indol-5-yl)-2-nitro-pyrrole] | 293.9 to 294.2 °C (dec.) | 
CC1(C)C(=O)Nc2ccc(-c3cccc(C#N)c3F)cc21 [Example 87, 3(3,3-Dimethyl-2-oxo-2,3-dihydro-1H-indol-5-yl)-2-fluoro-benzonitrile] | 270 to 272 °C | 
C#C[C@]1(O)CC[C@H]2[C@@H]3CCC4=CC(=O)CC[C@@H]4[C@H]3CC[C@@]21CC [Levonorgestrel] |  | EC50 [1]: 0.08 mg/kg and 0.12 mg/kg and 0.09 mg/kg (2×)
CC#C[C@]1(O)CC[C@H]2[C@@H]3CCC4=CC(=O)CCC4=C3[C@@H](c3ccc(N(C)C)cc3)C[C@@]21C [RU486] |  | IC50 ([1]; p.o., half-maximal decrease in EC50 progesterone induced decidual response, rats): 0.21 mg/kg and 0.14 mg/kg

Further lines, with some results ahead:

melting point | Structure (SMILES) | further results
188 to 189 °C | CC1(C)C(=O)Nc2ccc(-c3cccc(Cl)c3)cc21 [Example 4, 5-(3-Chloro-phenyl)-3,3-dimethyl-1,3dihydro-indol-2-one] | 
> 190 °C (dec.) | CC#CC1(OC)C(=O)Nc2ccc(-c3cccc(Cl)c3)cc21 (stereo not drawn) [Example 9, 5-(3-Chloro-phenyl)-3-methoxy-3-prop-1-ynyl-1,3-dihydro-indol-2-one] | 
169 to 171 °C | O=C1Cc2cc(-c3cccc(Cl)c3)ccc2N1 [Example 10, 5-(3-Chloro-phenyl)-1,3-dihydro-indol-2-one] | 
242 to 244 °C | O=C1Nc2ccc(-c3cccc(Cl)c3)cc2C12OCCCO2 [Example 12, 5′-(3-Chlorophenyl)spiro[1,3-dioxane-2,3-[3H]indol]-2′(1′H)-one] | 
238 to 240 °C | O=C1Nc2ccc(-c3cccc([N+](=O)[O-])c3)cc2C12CCCC2 [Example 13, 5′-(3-nitrophenyl)spiro[cyclopentane-1,3′-[3H]indol]2′(1′H)-one] | 
188 to 189 °C | O=C1Nc2ccc(-c3ccc(F)c(Cl)c3)cc2C12CCCCC2 [Example 20, 5′-(3Chloro-4-fluorophenyl)spiro[cyclohexane-1,3′-[3H]indol]-2′(1′H)-one] | 
171 to 172 °C | O=C1Nc2ccc(-c3cccc(F)c3)cc2C12CCCCC2 [Example 21, 5′-(3-Fluorophenyl)spiro[cyclohexane-1,3′-[3H]indol]-2′(1′H)-one] | 
180 to 183 °C | O=C1Nc2ccc(-c3cc(F)cc(F)c3)cc2C12CCCCC2 [Example 22, 5′-(3,5-Difluorophenyl)spiro[cyclohexane1,3′-[3H]indol]-2′(1′H)-one] | 
190 to 191 °C | N#Cc1cccc(-c2ccc3c(c2)C2(CCCCC2)C(=O)N3)c1 [Example 47] | inhibition in vivo at 10 mg/kg ([1]; @ 10 mg/kg, rat decidualization, antiprogestational mode, read-out: Decid. IC50 mg/kg): 50%
258 to 260 °C | N#Cc1ccc(-c2ccc3c(c2)C2(CCCCC2)C(=O)N3)cc1F [Example 63, 5′-(4-Cyano-3-fluorophenyl)-spiro[cyclohexane-1,3′-[3H]indol]-2′(1′H)-one] | 
192.3 to 193 °C | Cc1cc(C#N)sc1-c1ccc2c(c1)C(C)(C)C(=O)N2 [Example 69, 5(3,3-Dimethyl-2-oxo-2,3dihydro-1H-indol-5-yl)-4methyl thiophene-2-carbonitrile] | 
205.9 to 206.8 °C | CC1(C)C(=O)Nc2ccc(-c3cc(F)cc(Cl)c3)cc21 [Example 70, 5-(3-Chloro-5-fluoro-phenyl)-3,3-dimethyl-1,3-dihydro-indol-2-one] | 
231.2 to 232.7 °C | CC1(C)C(=O)Nc2ccc(-c3cc(F)cc([N+](=O)[O-])c3)cc21 [Example 71, 5-(3-Fluoro-5-nitro-phenyl)-3,3-dimethyl-1,3-dihydro-indol-2-one] | 
199.6 to 201.4 °C | CC1(C)C(=O)Nc2ccc(-c3coc(C#N)c3)cc21 [Example 72, 4-(3,3-Dimethyl-2-oxo-2,3-dihydro-1H-indol-5-yl)-furan-2-carbonitrile] | 
217 to 219 °C | N#Cc1cccc(-c2ccc3c(c2)C2(CCCC2)C(=O)N3)c1 [Example 77, 5′-(3-Cyanophenyl)-spiro[cyclopentane-1,3′-[3H]indol]-2′(1′H)-one] | inhibition in vivo at 3 mg/kg [1, 2]: 60%
255 to 256 °C | CC1(C)C(=O)Nc2ccc(-c3ccc(C#N)s3)cc21 [Example 86, 5-(3,3-Dimethyl-2-oxo-2,3-dihydro-1H-indol-5-yl)-thiophene2-carbonitrile] | 
